In patent US9623121B2, “Optical-imaging probe for detecting sentinel lymph nodes which contains a composite of poly-gamma-glutamic acid and an optical-imaging dye” (BIOLEADERS CORPORATION, priority 2010, dated 2017):

Experiments:
[1] = Light stability: near-infrared fluorescence intensity of solutions kept at room temperature for 3 days; type: physicochemical; settings: 50 μl of solution (0.01% ICG) in tube, after 3 days
Method: 50 μl of the prepared ICG/γ-PGA complex solution was dispensed into a 1.5 Ml tube, and then the near-infrared fluorescence spectrum thereof was measured using a fluorescence spectrophotometer (FluoroMate FS-2) (see FIG. 1).

[2] = In vivo near-infrared imaging of the sentinel lymph node after subcutaneous footpad injection; set-up: species or system BALB/c nude mice; settings: 0.01% solution, 50 μl s.c. into left forefoot, 30 minutes after injection
Method: In animal tests, 6-week-old female BALB/c nude mice (SLC Inc., Japan) with no pathogens were used. All the tests were performed under the approval of the Laboratory Animal Center, Chungnam National University.
For data acquisition and analysis, images (see FIG. 3) were obtained using a home-made NIR optical imaging system (see FIG. 2) manufactured by the present inventors. Herein, the near-infrared optical imaging system comprises a light source consisting of a 500 mW fiber-type laser, an emission filter, a lens system equipped with a microzoom, and a near-infrared detector (NIR CCD detector) (see FIG. 2). In the near infrared imaging system, the intensity of fluorescence appears as a pseudo color, and more red fluorescence indicates stronger intensity.
Before imaging, mice were anesthetized by intraperitoneally injecting a 2.5% avertin (2,2,2-tribromoethanol-tert-amyl alcohol, Sigma) solution at a dose of 0.01 Ml/g weight. 50 μl of each of an ICG solution (0.01%), ICG/γ-PGA (50 kDa) complex solutions (0.01%, 0.1% and 1%) and ICG/γ-PGA (7000 kDa) complex solutions (0.01%, 0.1% and 1%) was injected into the left forefoot of each nude mouse (footpad, subcutaneous injection), and after 5 min, 20 min and 30 min, the fluorescence of the sentinel lymph node was measured. […]

- fluorescence intensity (light stability) [1]: rapidly decreased
SMILES: CC1(C)C(/C=C/C=C/C=C/C=C2\N(CCCCS(=O)(=O)O)c3ccc4ccccc4c3C2(C)C)=[N+](CCCCS(=O)(=O)[O-])c2ccc3ccccc3c21 [ICG, Indocyanine green]
- intensity of fluorescence emitted from the sentinel lymph node [2]: very weak
- retention in the sentinel lymph node / migration to other lymph nodes [2]: did not remain in the sentinel lymph node and migrated to other lymph node
